Reference: paper PMC5218480 (PLoS ONE, 2017)

System: MV-4-11 cells
Assay: Gene expression microarray analysis (Affymetrix PrimeView) and GSEA
Assay type: cell-based, human
Parameters: RFU PODN (11730768_x_at) / Fold change /veh PODN (11730768_x_at) / RFU LINC00158 (11744669_a_at) / Fold change /veh LINC00158 (11744669_a_at) / RFU DUSP10 (11751237_a_at) / Fold change /veh DUSP10 (11751237_a_at) / RFU ID3 (11757404_x_at) / Fold change /veh ID3 (11757404_x_at) / RFU PLEKHG5 (11737974_s_at) / Fold change /veh PLEKHG5 (11737974_s_at) / RFU LRRC4B (11730491_at) / Fold change /veh LRRC4B (11730491_at) / RFU GIMAP4 (11747438_a_at) / Fold change /veh GIMAP4 (11747438_a_at) / RFU KRT8 (11758183_x_at) / Fold change /veh KRT8 (11758183_x_at) / RFU CNN1 (11734310_a_at) / Fold change /veh CNN1 (11734310_a_at) / RFU VPS37D (11726825_at) / Fold change /veh VPS37D (11726825_at) / RFU C10orf10 (11716522_x_at) / Fold change /veh C10orf10 (11716522_x_at) / RFU KIR2DL2 /// KIR2DL4 /// KIR2DL5A /// KIR2DL5B /// KIR2DS1 /// KIR2DS2 /// KIR2DS3 /// KIR2DS4 /// KIR3DL3 /// KIR3DL3 /// KIR3DS1 (11738374_at) / Fold change /veh KIR2DL2 /// KIR2DL4 /// KIR2DL5A /// KIR2DL5B /// KIR2DS1 /// KIR2DS2 /// KIR2DS3 /// KIR2DS4 /// KIR3DL3 /// KIR3DL3 /// KIR3DS1 (11738374_at) / RFU C1QL1 (11718748_at) / Fold change /veh C1QL1 (11718748_at) / RFU TMPRSS4 (11747572_a_at) / Fold change /veh TMPRSS4 (11747572_a_at) / RFU HAMP (11756126_x_at) / Fold change /veh HAMP (11756126_x_at) / RFU RNFT2 (11725882_a_at) / Fold change /veh RNFT2 (11725882_a_at) / RFU NR4A2 (11747474_a_at) / Fold change /veh NR4A2 (11747474_a_at) / RFU ABCC12 (11746883_a_at) / Fold change /veh ABCC12 (11746883_a_at) / RFU TMEM136 (11760407_x_at) / Fold change /veh TMEM136 (11760407_x_at) / RFU CLDN22 /// WWC2 (11732394_at) / Fold change /veh CLDN22 /// WWC2 (11732394_at) / RFU HLA-DPB1 (11760878_x_at) / Fold change /veh HLA-DPB1 (11760878_x_at) / RFU SPINT1 (11716480_a_at) / Fold change /veh SPINT1 (11716480_a_at) / RFU GAP43 (11754022_s_at) / Fold change /veh GAP43 (11754022_s_at) / RFU A4GNT (11735810_at) / Fold change /veh A4GNT (11735810_at) / RFU PRB3 (11715151_x_at) / Fold change /veh PRB3 (11715151_x_at) / RFU TUBB4B (11761932_at) / Fold change /veh TUBB4B (11761932_at) / RFU CAPN14 (11732068_a_at) / Fold change /veh CAPN14 (11732068_a_at) / RFU TMCC2 (11721928_a_at) / Fold change /veh TMCC2 (11721928_a_at) / RFU IRGQ (11745062_a_at) / Fold change /veh IRGQ (11745062_a_at) / RFU FAM174B (11720279_a_at) / Fold change /veh FAM174B (11720279_a_at) / RFU TMPRSS4 (11748680_a_at) / Fold change /veh TMPRSS4 (11748680_a_at) / RFU FAM212B (11763350_a_at) / Fold change /veh FAM212B (11763350_a_at) / RFU PLEKHG5 (11743358_a_at) / Fold change /veh PLEKHG5 (11743358_a_at) / RFU ZSCAN30 (11745921_a_at) / Fold change /veh ZSCAN30 (11745921_a_at) / RFU CMKLR1 (11741424_a_at) / Fold change /veh CMKLR1 (11741424_a_at) / RFU LOC101060620 /// MAPK8IP1 (11723275_at) / Fold change /veh LOC101060620 /// MAPK8IP1 (11723275_at) / RFU SPTSSB (11747773_x_at) / Fold change /veh SPTSSB (11747773_x_at) / RFU PRSS12 (11739890_at) / Fold change /veh PRSS12 (11739890_at) / RFU BIN1 (11741810_x_at) / Fold change /veh BIN1 (11741810_x_at) / RFU WNT11 (11732464_a_at) / Fold change /veh WNT11 (11732464_a_at) / RFU C10orf10 (11716521_a_at) / Fold change /veh C10orf10 (11716521_a_at) / RFU C5orf56 (11738089_at) / Fold change /veh C5orf56 (11738089_at) / RFU CYB561 (11721691_x_at) / Fold change /veh CYB561 (11721691_x_at) / RFU ANKRD19P (11752326_a_at) / Fold change /veh ANKRD19P (11752326_a_at) / RFU OR2T12 /// OR2T33 /// OR2T8 (11738714_s_at) / Fold change /veh OR2T12 /// OR2T33 /// OR2T8 (11738714_s_at) / RFU VCAN (11748164_a_at) / Fold change /veh VCAN (11748164_a_at) / RFU JSRP1 (11732532_at) / Fold change /veh JSRP1 (11732532_at) / RFU KRTAP10-11 (11738290_x_at) / Fold change /veh KRTAP10-11 (11738290_x_at) / RFU MYO3A (11730013_a_at) / Fold change /veh MYO3A (11730013_a_at) / RFU EBF3 (11725865_a_at) / Fold change /veh EBF3 (11725865_a_at) / RFU CAMK2N1 (11719241_x_at) / Fold change /veh CAMK2N1 (11719241_x_at) / RFU C5orf56 (11738088_a_at) / Fold change /veh C5orf56 (11738088_a_at) / RFU OLFML3 (11715873_a_at) / Fold change /veh OLFML3 (11715873_a_at) / RFU LOC100653217 /// NTM (11731650_a_at) / Fold change /veh LOC100653217 /// NTM (11731650_a_at) / RFU MAPK11 (11762145_a_at) / Fold change /veh MAPK11 (11762145_a_at) / RFU FIZ1 (11724087_x_at) / Fold change /veh FIZ1 (11724087_x_at) / RFU OASL (11726364_x_at) / Fold change /veh OASL (11726364_x_at) / RFU SOX15 (11748057_x_at) / Fold change /veh SOX15 (11748057_x_at) / RFU CD79A (11719716_a_at) / Fold change /veh CD79A (11719716_a_at) / RFU HIST1H1D (11736915_at) / Fold change /veh HIST1H1D (11736915_at) / RFU CASKIN2 (11723855_a_at) / Fold change /veh CASKIN2 (11723855_a_at) / RFU LOC730098 (11760151_x_at) / Fold change /veh LOC730098 (11760151_x_at) / RFU OR4N2 (11742367_at) / Fold change /veh OR4N2 (11742367_at) / RFU PRRT2 (11749266_a_at) / Fold change /veh PRRT2 (11749266_a_at) / RFU SNX32 (11753110_a_at) / Fold change /veh SNX32 (11753110_a_at) / RFU CDHR5 (11726645_a_at) / Fold change /veh CDHR5 (11726645_a_at) / RFU RCAN1 (11760418_a_at) / Fold change /veh RCAN1 (11760418_a_at) / RFU FAM167A (11723789_a_at) / Fold change /veh FAM167A (11723789_a_at) / RFU FAM26E (11764081_at) / Fold change /veh FAM26E (11764081_at) / RFU ISYNA1 (11749810_s_at) / Fold change /veh ISYNA1 (11749810_s_at) / RFU ACY1 (11761880_at) / Fold change /veh ACY1 (11761880_at) / RFU 11764098_at / Fold change /veh 11764098_at / RFU SAMD14 (11745864_x_at) / Fold change /veh SAMD14 (11745864_x_at) / RFU NPB (11741838_a_at) / Fold change /veh NPB (11741838_a_at) / RFU TMPRSS6 (11731388_a_at) / Fold change /veh TMPRSS6 (11731388_a_at) / RFU KRTAP10-2 (11738614_at) / Fold change /veh KRTAP10-2 (11738614_at) / RFU ARHGAP8 /// PRR5-ARHGAP8 (11727945_x_at) / Fold change /veh ARHGAP8 /// PRR5-ARHGAP8 (11727945_x_at) / RFU KRTAP5-7 /// NADSYN1 (11734609_at) / Fold change /veh KRTAP5-7 /// NADSYN1 (11734609_at) / RFU RASL12 (11751679_a_at) / Fold change /veh RASL12 (11751679_a_at) / RFU CDKN2B (11736163_a_at) / Fold change /veh CDKN2B (11736163_a_at) / RFU PRF1 (11729649_at) / Fold change /veh PRF1 (11729649_at) / RFU, ZNF638 /// ZNF638-IT1 / Fold change vs veh, ZNF638 /// ZNF638-IT1 / RFU, PANK3 / Fold change vs veh, PANK3 / RFU, SH3YL1 / Fold change vs veh, SH3YL1 / RFU, ZEB2 / Fold change vs veh, ZEB2 / RFU, NRIP1 / Fold change vs veh, NRIP1 / RFU, PTTG1IP / Fold change vs veh, PTTG1IP / RFU, CAPN2 / Fold change vs veh, CAPN2 / RFU, MED14 / Fold change vs veh, MED14 / RFU, SNORA58 / Fold change vs veh, SNORA58 / RFU, C1orf63 / Fold change vs veh, C1orf63 / RFU, LRRFIP1 / Fold change vs veh, LRRFIP1 / RFU, NDUFAF7 / Fold change vs veh, NDUFAF7 / RFU, SLC12A2 / Fold change vs veh, SLC12A2 / RFU, IBTK / Fold change vs veh, IBTK / RFU, ESF1 / Fold change vs veh, ESF1 / Fold change vs veh, TMEM50B / RFU, TAOK1 / Fold change vs veh, TAOK1 / RFU, ACBD3 / Fold change vs veh, ACBD3 / RFU, TMA16 / Fold change vs veh, TMA16 / RFU, RWDD3 / Fold change vs veh, RWDD3 / RFU, BCAT1 / Fold change vs veh, BCAT1 / RFU, EDEM3 / Fold change vs veh, EDEM3 / RFU, TMEM33 / Fold change vs veh, TMEM33 / RFU, WDR75 / Fold change vs veh, WDR75 / RFU, AHCTF1 / Fold change vs veh, AHCTF1 / RFU, TFRC / Fold change vs veh, TFRC / RFU, ZDHHC17 / Fold change vs veh, ZDHHC17 / RFU, NOM1 / Fold change vs veh, NOM1 / RFU, ARL8B / Fold change vs veh, ARL8B / RFU, ZBTB11 / Fold change vs veh, ZBTB11 / RFU, TAMM41 / Fold change vs veh, TAMM41 / RFU, KIAA1704 /// LOC100996395 / Fold change vs veh, KIAA1704 /// LOC100996395 / RFU, ING1 / Fold change vs veh, ING1 / RFU, TRMT61B / Fold change vs veh, TRMT61B / RFU, FUBP3 / Fold change vs veh, FUBP3 / RFU, TP53 / Fold change vs veh, TP53 / RFU, TNKS2 / Fold change vs veh, TNKS2 / RFU, ZFP14 / Fold change vs veh, ZFP14 / RFU, ACTR2 / Fold change vs veh, ACTR2 / RFU, PPP3R1 / Fold change vs veh, PPP3R1 / RFU, PIK3R1 / Fold change vs veh, PIK3R1 / RFU, HNRNPA1 / Fold change vs veh, HNRNPA1 / RFU, RNF170 / Fold change vs veh, RNF170 / RFU, ZNF28 / Fold change vs veh, ZNF28 / RFU, RNGTT / Fold change vs veh, RNGTT / RFU, OGT / Fold change vs veh, OGT / RFU, BRD1 / Fold change vs veh, BRD1 / RFU, MARS / Fold change vs veh, MARS / RFU, ZNF655 / Fold change vs veh, ZNF655 / RFU, FAHD1 / Fold change vs veh, FAHD1 / RFU, BDP1 / Fold change vs veh, BDP1 / RFU, LRRCC1 / Fold change vs veh, LRRCC1 / RFU, ARID1A / Fold change vs veh, ARID1A / RFU, ZNF146 / Fold change vs veh, ZNF146 / RFU, ZNF330 / Fold change vs veh, ZNF330 / RFU, GPN3 / Fold change vs veh, GPN3 / RFU, C9orf123 / Fold change vs veh, C9orf123 / RFU, N4BP2L2 / Fold change vs veh, N4BP2L2 / RFU, ARFIP1 / Fold change vs veh, ARFIP1 / RFU, FAM179B / Fold change vs veh, FAM179B / RFU, BCL10 / Fold change vs veh, BCL10 / RFU, UHRF1BP1L / Fold change vs veh, UHRF1BP1L / RFU, BET1 / Fold change vs veh, BET1 / RFU, CNOT2 / Fold change vs veh, CNOT2 / RFU, ZNF268 / Fold change vs veh, ZNF268 / Fold change vs veh, ZNF507 / RFU, DGCR2 / Fold change vs veh, DGCR2 / RFU, WDSUB1 / Fold change vs veh, WDSUB1 / Fold change vs veh, HSP90B1 /// MIR3652 / RFU, ADSS / Fold change vs veh, ADSS / RFU, GK / Fold change vs veh, GK / RFU, ZNF148 / Fold change vs veh, ZNF148 / RFU, TAF9 / Fold change vs veh, TAF9 / RFU, SLC1A5 / Fold change vs veh, SLC1A5 / RFU, SLMO2 / Fold change vs veh, SLMO2 / RFU, ABCC4 / Fold change vs veh, ABCC4 / RFU, LOC101060439 /// RAP1B / Fold change vs veh, LOC101060439 /// RAP1B / RFU, RFX7 / Fold change vs veh, RFX7 / RFU, GTPBP10 / Fold change vs veh, GTPBP10 / RFU, CNEP1R1 / Fold change vs veh, CNEP1R1 / RFU, BIVM-ERCC5 /// ERCC5 / Fold change vs veh, BIVM-ERCC5 /// ERCC5 / RFU, ILF3 / Fold change vs veh, ILF3 / RFU 11762660_at / Fold change /veh 11762660_at / RFU VCAN (11757783_s_at) / Fold change /veh VCAN (11757783_s_at) / RFU DDX43 (11728927_at) / Fold change /veh DDX43 (11728927_at) / RFU KRT8 (11758188_x_at) / Fold change /veh KRT8 (11758188_x_at) / RFU NKD1 (11759106_at) / Fold change /veh NKD1 (11759106_at) / RFU SRD5A1 (11742802_a_at) / Fold change /veh SRD5A1 (11742802_a_at) / RFU TPSAB1 /// TPSB2 (11721975_s_at) / Fold change /veh TPSAB1 /// TPSB2 (11721975_s_at) / RFU GSTM3 (11746129_a_at) / Fold change /veh GSTM3 (11746129_a_at) / RFU IL23R (11737362_x_at) / Fold change /veh IL23R (11737362_x_at) / RFU TMEM51 (11727254_a_at) / Fold change /veh TMEM51 (11727254_a_at) / RFU PIWIL2 (11732686_x_at) / Fold change /veh PIWIL2 (11732686_x_at) / RFU ORM1 (11744905_x_at) / Fold change /veh ORM1 (11744905_x_at) / RFU CCDC152 (11743942_at) / Fold change /veh CCDC152 (11743942_at) / RFU ECM1 (11717891_a_at) / Fold change /veh ECM1 (11717891_a_at) / RFU IL23R (11748794_a_at) / Fold change /veh IL23R (11748794_a_at) / RFU TNFAIP8L3 (11732012_x_at) / Fold change /veh TNFAIP8L3 (11732012_x_at) / RFU MBOAT4 (11741988_at) / Fold change /veh MBOAT4 (11741988_at) / RFU 11764193_at / Fold change /veh 11764193_at / RFU TMEM53 (11763286_at) / Fold change /veh TMEM53 (11763286_at) / RFU MAGEB2 (11727129_at) / Fold change /veh MAGEB2 (11727129_at) / RFU TMEM200A (11744735_a_at) / Fold change /veh TMEM200A (11744735_a_at) / RFU CCDC152 (11751479_a_at) / Fold change /veh CCDC152 (11751479_a_at) / RFU FAM211A (11726209_a_at) / Fold change /veh FAM211A (11726209_a_at) / RFU RGS16 (11746705_a_at) / Fold change /veh RGS16 (11746705_a_at) / RFU VCAN (11755009_s_at) / Fold change /veh VCAN (11755009_s_at) / RFU RHOB (11743442_s_at) / Fold change /veh RHOB (11743442_s_at) / RFU RGS16 (11720943_a_at) / Fold change /veh RGS16 (11720943_a_at) / RFU RGS16 (11720944_at) / Fold change /veh RGS16 (11720944_at) / RFU, VPS4B / Fold change vs veh, VPS4B / RFU, CREB1 / Fold change vs veh, CREB1 / RFU, DNAJC13 / Fold change vs veh, DNAJC13 / RFU, GNAQ / Fold change vs veh, GNAQ / RFU, CDK5R1 / Fold change vs veh, CDK5R1 / RFU, ZRANB3 / Fold change vs veh, ZRANB3 / RFU, CUL4A / Fold change vs veh, CUL4A / RFU, CCNY / Fold change vs veh, CCNY / RFU, UFL1 / Fold change vs veh, UFL1 / RFU, COG3 / Fold change vs veh, COG3 / RFU, DIAPH2 / Fold change vs veh, DIAPH2 / RFU, SKA2 / Fold change vs veh, SKA2 / RFU, AFF3 / Fold change vs veh, AFF3 / RFU, LMF1 / Fold change vs veh, LMF1 / RFU, IPO11 / Fold change vs veh, IPO11 / RFU, DFFB / Fold change vs veh, DFFB / RFU, FOXP1 / Fold change vs veh, FOXP1 / RFU, CARD8 / Fold change vs veh, CARD8 / RFU, STRN3 / Fold change vs veh, STRN3 / RFU, ADK / Fold change vs veh, ADK / RFU, RASSF2 / Fold change vs veh, RASSF2 / RFU, WIPF1 / Fold change vs veh, WIPF1 / RFU, LARP1B / Fold change vs veh, LARP1B / RFU, RASA1 / Fold change vs veh, RASA1 / RFU, RB1 / Fold change vs veh, RB1 / RFU, PPFIA1 / Fold change vs veh, PPFIA1 / RFU, MAT2A / Fold change vs veh, MAT2A / RFU, CCT5 / Fold change vs veh, CCT5 / RFU, WDR92 / Fold change vs veh, WDR92 / RFU, CUX1 / Fold change vs veh, CUX1 / RFU, TTC7A / Fold change vs veh, TTC7A / RFU, TMEM135 / Fold change vs veh, TMEM135 / RFU, DEPTOR / Fold change vs veh, DEPTOR / RFU, CPM / Fold change vs veh, CPM / RFU, DNAJB6 / Fold change vs veh, DNAJB6 / RFU, CACNA2D3 / Fold change vs veh, CACNA2D3 / RFU, DTX4 / Fold change vs veh, DTX4 / RFU, TFCP2 / Fold change vs veh, TFCP2 / RFU, GMCL1 /// GMCL1P1 / Fold change vs veh, GMCL1 /// GMCL1P1 / RFU, AEBP2 / Fold change vs veh, AEBP2 / RFU, SNHG1 /// SNORD22 /// SNORD25 /// SNORD26 /// SNORD27 /// SNORD28 /// SNORD29 /// SNORD31 / Fold change vs veh, SNHG1 /// SNORD22 /// SNORD25 /// SNORD26 /// SNORD27 /// SNORD28 /// SNORD29 /// SNORD31 / Fold change (Aza/veh), C12orf56 (ProbeSet 11735607_a_at) / Fold change (ACY-1035/veh), C12orf56 (ProbeSet 11735607_a_at) / Fold change (Aza/veh), FGFR1OP (ProbeSet 11751329_s_at) / Fold change (ACY-1035/veh), FGFR1OP (ProbeSet 11751329_s_at) / Fold change (Aza/veh), VPS36 (ProbeSet 11739960_a_at) / Fold change (ACY-1035/veh), VPS36 (ProbeSet 11739960_a_at) / RFU SYPL1 (11715823_x_at) / Fold change /veh SYPL1 (11715823_x_at) / RFU IGFBP7 (11715501_s_at) / Fold change /veh IGFBP7 (11715501_s_at) / RFU REEP3 (11722064_at) / Fold change /veh REEP3 (11722064_at) / RFU IGLL1 (11728026_x_at) / Fold change /veh IGLL1 (11728026_x_at): dose or concentration left out as unconfirmed
Conditions: MV-4-11 cells, 48 hours

For `Nc1ccc(-c2cccs2)cc1NC(=O)c1ccc2c(c1)cc(C1CC1)n2CCN1CCOCC1` [ACY-1035], which “Fold change /veh WNT11 (11732464_a_at)” value is on record?
Its value is 1.11.
